Measurements from ChEMBL document CHEMBL5465560, “Selectivity Literature for EUbOPEN Chemogenomic Library” (2024).
Numbering of substitutions follows the chain as printed.

Key:
Conditions in all cases: at 10 µM
[1] = test system: Receptor-type tyrosine-protein kinase FLT3 (Homo sapiens), P36888 [UNDEFINED MUTATION]; test: (§1) Selectivity interaction (KinomeScan (DiscoverX)) EUB0000655a FLT3
[2] = test system: T1, Receptor-type tyrosine-protein kinase FLT3 (Homo sapiens), P36888 [D835Y]; test: as §1
T1 sequence (whole entry): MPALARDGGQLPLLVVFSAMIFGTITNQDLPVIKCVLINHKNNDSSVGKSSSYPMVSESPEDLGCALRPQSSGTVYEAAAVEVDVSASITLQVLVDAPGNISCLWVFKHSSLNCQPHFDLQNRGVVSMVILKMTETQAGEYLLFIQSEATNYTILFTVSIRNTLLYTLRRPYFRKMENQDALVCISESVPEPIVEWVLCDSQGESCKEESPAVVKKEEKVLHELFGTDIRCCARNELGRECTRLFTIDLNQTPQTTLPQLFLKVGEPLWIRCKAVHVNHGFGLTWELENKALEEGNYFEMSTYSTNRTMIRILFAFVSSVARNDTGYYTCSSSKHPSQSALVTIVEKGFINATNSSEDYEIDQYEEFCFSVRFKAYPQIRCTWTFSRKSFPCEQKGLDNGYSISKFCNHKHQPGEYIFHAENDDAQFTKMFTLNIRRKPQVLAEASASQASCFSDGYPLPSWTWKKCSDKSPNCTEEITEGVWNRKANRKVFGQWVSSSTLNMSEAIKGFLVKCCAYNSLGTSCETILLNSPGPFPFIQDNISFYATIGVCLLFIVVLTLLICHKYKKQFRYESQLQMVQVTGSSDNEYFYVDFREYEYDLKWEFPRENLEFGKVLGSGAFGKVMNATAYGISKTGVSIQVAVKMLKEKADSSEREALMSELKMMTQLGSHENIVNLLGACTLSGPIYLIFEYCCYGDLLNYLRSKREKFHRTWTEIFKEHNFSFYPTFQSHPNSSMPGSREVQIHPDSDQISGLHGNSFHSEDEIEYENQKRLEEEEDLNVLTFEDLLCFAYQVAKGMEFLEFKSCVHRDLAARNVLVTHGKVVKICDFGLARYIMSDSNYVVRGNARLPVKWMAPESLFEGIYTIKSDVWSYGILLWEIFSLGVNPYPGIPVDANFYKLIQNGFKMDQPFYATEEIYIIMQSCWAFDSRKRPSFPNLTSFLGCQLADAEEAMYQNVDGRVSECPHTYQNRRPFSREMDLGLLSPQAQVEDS

[3] = test system: T2, Receptor-type tyrosine-protein kinase FLT3 (Homo sapiens), P36888 [K663Q]; test: as §1
T2 sequence (whole entry): T1 sequence (whole entry) with K663Q, Y835D

[4] = test system: T3, Receptor-type tyrosine-protein kinase FLT3 (Homo sapiens), P36888 [D835H]; test: as §1
T3 sequence (whole entry): T1 sequence (whole entry) with Y835H

[5] = biological target: Receptor-type tyrosine-protein kinase FLT3 (Homo sapiens) (UniProt P36888); test: as §1

Which % of control [1] does the source give for `CN(C)CCOc1ccc(-c2nc(-c3ccncc3)c(-c3ccc4c(c3)CC/C4=N\O)[nH]2)cc1` here?
Its % of control is 78%.

And the % of control [2]?
The % of control was 64%.

And the % of control [3]?
Its % of control is 90%.

What about the % of control [4] of the same molecule?
Its % of control is 85%.

And the % of control [5]?
The % of control was 62%.
